The data set concerns the target ATP-dependent translocase ABCB1 (Rattus norvegicus, UniProt P43245). As to the kind of experiment: TP_TRANSPORTER: RNase protection assay in H-4-II-E cells. It is filed as functional, cell-based.

Sequence of ATP-dependent translocase ABCB1 (P43245 whole entry): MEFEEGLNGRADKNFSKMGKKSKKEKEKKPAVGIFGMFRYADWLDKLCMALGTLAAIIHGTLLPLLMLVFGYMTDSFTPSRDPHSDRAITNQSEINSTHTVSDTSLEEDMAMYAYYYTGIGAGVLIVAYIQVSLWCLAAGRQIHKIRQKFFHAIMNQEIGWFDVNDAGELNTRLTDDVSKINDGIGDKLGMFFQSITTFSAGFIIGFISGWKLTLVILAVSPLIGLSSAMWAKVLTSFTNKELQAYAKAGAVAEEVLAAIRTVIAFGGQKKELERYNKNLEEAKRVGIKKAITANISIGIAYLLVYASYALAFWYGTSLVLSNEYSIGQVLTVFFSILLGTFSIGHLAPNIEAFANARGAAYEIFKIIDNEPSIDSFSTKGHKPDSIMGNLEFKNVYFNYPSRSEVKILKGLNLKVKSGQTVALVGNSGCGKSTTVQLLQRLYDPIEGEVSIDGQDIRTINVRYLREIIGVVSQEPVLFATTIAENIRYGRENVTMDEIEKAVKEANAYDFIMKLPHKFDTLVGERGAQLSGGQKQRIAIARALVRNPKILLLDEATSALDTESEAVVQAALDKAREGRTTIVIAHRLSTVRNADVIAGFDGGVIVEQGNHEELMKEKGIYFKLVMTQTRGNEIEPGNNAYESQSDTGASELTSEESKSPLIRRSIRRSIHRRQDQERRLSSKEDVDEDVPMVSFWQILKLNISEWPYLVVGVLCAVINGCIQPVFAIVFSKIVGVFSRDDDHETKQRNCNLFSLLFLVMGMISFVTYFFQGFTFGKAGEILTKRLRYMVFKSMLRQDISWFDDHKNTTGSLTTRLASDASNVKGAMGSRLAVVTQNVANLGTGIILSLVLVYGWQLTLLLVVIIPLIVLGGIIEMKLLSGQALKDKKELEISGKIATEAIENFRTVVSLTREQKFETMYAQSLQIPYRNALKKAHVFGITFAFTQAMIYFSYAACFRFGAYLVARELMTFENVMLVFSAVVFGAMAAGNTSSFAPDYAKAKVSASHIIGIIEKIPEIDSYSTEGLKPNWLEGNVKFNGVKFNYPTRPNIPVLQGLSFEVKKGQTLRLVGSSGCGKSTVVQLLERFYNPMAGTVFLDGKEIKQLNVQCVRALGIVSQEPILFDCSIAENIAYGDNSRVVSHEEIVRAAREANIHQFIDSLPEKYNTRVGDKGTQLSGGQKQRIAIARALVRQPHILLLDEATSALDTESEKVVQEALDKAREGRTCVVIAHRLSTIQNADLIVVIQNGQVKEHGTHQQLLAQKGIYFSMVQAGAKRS

Take INSULIN HUMAN: the Activity result is “inducer [+]”.
